SMILES strings stand for the structures. Calls of active or inactive are those of the source. No rule for the calls is given here.

This test in a line: rescue of alpha-synuclein yeast toxicity, dose response, S. cerevisiae, plate reader, cherry-pick (AID 602273). Conditions: S. cerevisiae alpha-synuclein toxicity rescue, OD600 growth, 24 h; at 26 µM (top of the series).
Take `C/C(=N\NC(=O)c1ccoc1C)c1cccc2ccccc12`: the growth rescue activity is 8.58% (inactive).

In the case of `CC(=O)Nc1nnc(SCC(=O)c2ccc(F)cc2)s1`, the growth rescue activity is -0.765% (inactive).

Regarding `CCCc1nc(SCC(=O)Nc2cc(C)on2)c2ccccc2n1`, the growth rescue activity is 4.07% (inactive).

Regarding `Cn1c(CO)cnc1SCC(=O)c1ccc(Cl)cc1`, the growth rescue activity is 4.95% (inactive).

Consider `CC(C)OC(=O)c1ccc(COc2ccc3ccc(=O)oc3c2)o1`, for which the growth rescue activity is 2.08% (inactive).

For `COc1ccc(NC(=O)COC(=O)/C=C/C(=O)OCC(=O)Nc2ccc(OC)c(Cl)c2)cc1Cl`, the growth rescue activity was 3.29% (inactive).

As to `COC(=O)[C@@H](Cc1c[nH]c2ccccc12)NC(=O)c1ccc2c(c1)OCO2`, the growth rescue activity is 0.758% (inactive).

For `O=C(O)CSc1nc2ccccc2nc1Cc1ccccc1F`, the growth rescue activity was 5.3% (inactive).

For the compound `O=C(Nc1ccc2c(c1)C(=O)OC2)c1ccc(Cl)cc1`, the growth rescue activity is -1.79% (inactive).

For `O=C(CSc1ccc(Cl)cc1)N1CCN(c2c(Cl)cccc2[N+](=O)[O-])CC1`, the growth rescue activity is -19.7% (inactive).

`O=C(O)C1CCCCC1C(=O)Nc1ccc2c(c1)CCC2` (configuration not stated): the growth rescue activity is -2.7% (inactive).

With `CC1CC(C)(C)N(C(=O)NC2CCCCC2)c2ccccc21` (configuration not stated), the growth rescue activity was 12.6% (inactive).

Take `Cc1[nH]n(-c2ccccc2)c(=O)c1C=NCCc1ccccc1`: the growth rescue activity was 5.9% (inactive).

For the compound `CCN(CC)CCCNC(=O)CSc1c2c(nc3cc(Cl)ccc13)CCCC2`, the growth rescue activity is 3.73% (inactive).

For the compound `c1ccc2c(Nc3nnc(-c4ccncc4)s3)cccc2c1`, the growth rescue activity is -9.03% (inactive).

As for `Cc1cc(C(=O)N2CCN(c3ccccn3)CC2)c(C)o1`, the growth rescue activity was -0.518% (inactive).

In the case of `Nc1nnc(SCc2c(F)cccc2Cl)s1`, the growth rescue activity was 4.49% (inactive).

With `Brc1cnc2nc(SC/C=C/c3ccccc3)[nH]c2c1`, the growth rescue activity was 0.58% (inactive).

Turning to `Cc1ccc2cccnc2c1NC(=S)NC(=O)c1ccccc1`, the growth rescue activity is -4.6% (inactive).

Take `O=c1[nH]c2c(s1)C=Nc1ccccc1N2`: the growth rescue activity was 4.6% (inactive).

On to `CCOc1cccc(/C=C/c2ccc3cccc(O)c3n2)c1OC`, for which the growth rescue activity is -2.49% (inactive).

Take `CC(C)C(=O)N1CCC(n2nccc2NC(=O)CCOc2ccccc2)CC1`: the growth rescue activity is -1.45% (inactive).

Take `O=C(CSCc1ccc(Br)cc1)N1CCCC1`: the growth rescue activity was 0.808% (inactive).

Regarding `Cc1ccc(CN(C)C(=O)C2CCC(=O)N(CCc3ccccc3)C2)o1` (configuration not stated), the growth rescue activity is 1.41% (inactive).

`COc1ccc(CCNc2oc(-c3ccccc3OC)nc2C#N)cc1`: the growth rescue activity was 1.38% (inactive).

For `Cn1cc([N+](=O)[O-])c(C(=O)Nc2ccc(-c3nc4ccccc4[nH]3)cc2)n1`, the growth rescue activity was -1.83% (inactive).

Consider `O=C1NC(=O)[C@]2(Cc3ccccc3N3CCN(c4ccccc4)CC32)C(=O)N1Cc1ccccc1` (some centres not stated), for which the growth rescue activity was 3.15% (inactive).

`O=C1NCC2=C1C(c1ccc(Br)cc1)Nc1ccccc1N2` (configuration not stated): the growth rescue activity was -8.45% (inactive).

As to `CCOC(=O)CC(=O)CSCC(=O)Nc1ccc(C)cc1`, the growth rescue activity was -1.13% (inactive).

Take `Cc1ccc(O)c(CNc2nccs2)c1`: the growth rescue activity is 12% (inactive).

`COc1ccc(C(=O)n2nc(C)cc2Nc2ccccc2)cc1`: the growth rescue activity was 2.84% (inactive).

Take `O=C(CCC1CCCN(C(=O)c2ccc3cc[nH]c3c2)C1)NCc1ccc(F)c(F)c1` (configuration not stated): the growth rescue activity was -2.77% (inactive).

As for `CCCSc1nnc(Sc2nnnn2-c2ccccc2)s1`, the growth rescue activity was 4.13% (inactive).

Consider `COc1ccccc1C(=O)CSc1nnc(-c2ccco2)o1`, for which the growth rescue activity was -9.45% (inactive).

`C=CCN1C(=O)C(Cc2ccc(OCC)cc2)SC1=Nc1ccc(C(=O)O)cc1` (configuration not stated): the growth rescue activity was 18.5% (inactive).

Turning to `CC(OC(=O)/C=C/c1ccc2ccccc2n1)C(=O)NCc1ccccc1` (configuration not stated), the growth rescue activity was 3.64% (inactive).

Turning to `Cc1cccc(-c2cc(C(=O)Nc3ccncc3)c3ccccc3n2)c1`, the growth rescue activity is 1.56% (inactive).

Consider `CC1(C)CC(=O)C2=C(C1)OC(N)=C(C#N)C2C#Cc1ccccc1` (configuration not stated), for which the growth rescue activity is 8.43% (inactive).

As for `O=C(O)CC1=C(Nc2ccccc2)C(=O)N(c2ccccc2)C1c1ccc(Cl)cc1` (configuration not stated), the growth rescue activity was 7.05% (inactive).

On to `COc1cccc(-c2nnc(SCc3nc4ccccc4[nH]3)n2N)c1`, for which the growth rescue activity is 1.34% (inactive).

In the case of `O=C(/C=C/Sc1ccccc1)c1ccccc1`, the growth rescue activity is 3.99% (inactive).

Turning to `O=C(NC1CCSc2ccccc21)c1ccccc1Cl` (configuration not stated), the growth rescue activity was -4.11% (inactive).

For `CNc1nc(Nc2ccc(C)c(Cl)c2)nc(N)c1[N+](=O)[O-]`, the growth rescue activity is -8.67% (inactive).

Regarding `Cc1cccc(NCc2nc3ccccc3n2C)c1`, the growth rescue activity is -1.89% (inactive).

As to `CCN(CC)CCn1c2ccccc2c2nc3ccc([N+](=O)[O-])cc3cc21`, the growth rescue activity was 0.822% (inactive).

Take `COc1ccc(-c2nc3scc(-c4ccccc4)n3n2)cc1`: the growth rescue activity was -0.958% (inactive).

As for `CC(=O)Nc1cccc(NC(=O)CSc2ncc(C(=O)Nc3ccccc3)c(=O)n2C)c1`, the growth rescue activity was -9.48% (inactive).

Take `CC(C)(CNC(=O)/C=C/c1ccc(F)cc1)CNC(=O)/C=C/c1ccc(F)cc1`: the growth rescue activity is 0.36% (inactive).

With `Cc1cc(C)n(CC(O)COc2ccc(Cl)cc2Cl)n1` (configuration not stated), the growth rescue activity is 9.05% (inactive).

Consider `CC(C)(C)c1cc(NC(=O)CCSc2nnc3ccccn23)cc(C(C)(C)C)c1`, for which the growth rescue activity was 3.55% (inactive).

Turning to `CCc1c(C)sc(NC(=O)c2ccc(Br)o2)c1C(=O)OC`, the growth rescue activity was 5.35% (inactive).

On to `COc1ccc(S(=O)(=O)n2nc(OC(=O)c3ccccc3Br)cc2N)cc1`, for which the growth rescue activity was -9.27% (inactive).

For `O=C(NCc1cccc(F)c1)c1noc2c1CCCC2`, the growth rescue activity was 10.6% (inactive).

Turning to `CCOC(=O)C1(Cc2ccc(OC)cc2)CCN(C(=O)c2cc3ccccc3[nH]2)CC1`, the growth rescue activity was 1.19% (inactive).

Turning to `Cc1nc2ccccc2nc(C)c1=NOCc1ccccc1Cl`, the growth rescue activity is 0.053% (inactive).

With `Cc1ccc(N2C(=O)NC(=O)/C(=C\C=C\c3ccco3)C2=O)cc1C`, the growth rescue activity was 1.5% (inactive).

Consider `CCC(=O)Nc1cccc(C(=O)/C=C/c2ccc(F)cc2)c1`, for which the growth rescue activity was -9.73% (inactive).

Consider `CC1(C)CC(=O)C2=C(C1)Nc1cc3c(cc1C2c1ccc2c(c1)OCO2)OCO3` (configuration not stated), for which the growth rescue activity is 11.9% (inactive).

In the case of `Fc1ccccc1-c1nc2nc3ccccc3nc2n1CC1CCCO1` (configuration not stated), the growth rescue activity was 11.6% (inactive).

Consider `CC(=O)c1cccc(N(CC(=O)Nc2ccc(F)cc2F)S(C)(=O)=O)c1`, for which the growth rescue activity is 2.96% (inactive).

Take `C=CCn1c(C)cc(C(=O)CSc2nc(N)cc(N)n2)c1C`: the growth rescue activity was 0.814% (inactive).

Consider `Cc1ccc(C2=Nc3ccccc3NC(C)(c3ccc(C)o3)C2)o1` (configuration not stated), for which the growth rescue activity is 0.617% (inactive).

Source of the values: PubChem BioAssay AID602273 (Broad Institute, 2012).
